In patent US20240000756A1, “METHODS AND COMPOUNDS FOR TREATMENT OF AUTISM SPECTRUM DISORDER” (Crestone, Inc., priority 2020, published 2024):
Converted amounts (≈) assume the structure as drawn. Read-outs that look alike come from different tables or passages of the source.

Tests used:
[1] = Multiple ascending dose Phase 1b study, safety and pharmacokinetics in healthy adults; type: in vivo, human; conditions: for half-life / Tmax: both sexes, human, plasma, oral
Method: The study was performed at Quintiles Phase I Services in Overland Park, KS. […] The secondary objective was to determine the plasma pharmacokinetic characteristics of CRS3123 after multiple oral doses. An exploratory endpoint was the evaluation of the effect of CRS3123 on fecal microbiome.

C. difficile [2] = conditions: C. difficile clinical isolates, agar dilution; cited from earlier work
C. perfringens = C. perfringens clinical isolates, agar dilution; cited from earlier work
C. difficile [3] = conditions: cited from earlier work
[4] = Single ascending dose Phase 1a study, safety and pharmacokinetics in healthy adults
[5] = single dose, all TEAEs, combined
[6] = single dose, related to CRS3123 treatment, combined

SMILES: O=c1cc(NCCCN[C@@H]2CCOc3c(Br)cc(Br)cc32)[nH]c2ccsc12 [CRS3123]
- dose proportionality of exposure (Cmax, AUC0-12 Day 1; Cmax,ss, AUC0-τ Day 10) ([1]; 200-600 mg BID): less than proportional to the increase in dose
- half-life ([1]; following a single dose, across 3 dose groups, read-out: geometric mean t1/2): 3.01 to 3.53 h
- half-life ([1]; following 10 days of twice daily administration, across 3 dose groups, read-out: geometric mean t1/2,ss): 4.71 to 6.32 h
- Tmax ([1]; following 10 days of twice daily administration, across 3 dose groups, read-out: median Tmax,ss): 1 to 2 h
- Tmax ([1]; following a single dose, across 3 dose groups (200, 400, 600 mg), read-out: median Tmax): 2 to 3 h
- QTcF interval ([1]; multiple ascending dose): no prolongation
- overall safety and tolerability ([1]; multiple ascending dose, 200-600 mg BID, 10 days): generally safe and well tolerated
- accumulation ([1]; multiple twice daily dosing for 10 days): minimal accumulation
- fate of unchanged drug ([1]; single and multiple dose): retained in the GI tract and excreted in feces
- MIC90 (C. difficile [2]): 1.0 µg/mL (≈ 1.95 µM)
- MIC90 (C. perfringens): 0.25 µg/mL (≈ 0.487 µM)
- activity in hamster model of C. difficile infection (C. difficile [3]): active
- deaths, SAEs, severe or life-threatening TEAEs ([4]; single dose): no deaths, SAEs, or severe or life-threatening TEAEs
- moderate TEAEs ([4]; single dose): 7.4%
- overall safety and tolerability ([4]; single dose study): safe and well-tolerated
- subjects reporting treatment-emergent adverse events (TEAEs) ([4]; single dose, CRS3123-treated subjects combined): 93.3%
- TEAE frequency: abnormal urine analysis [4, 5]: 20.0%
- TEAE frequency: decreased hemoglobin [4, 5]: 23.3%
- TEAE frequency: headache [4, 5]: 20.0%
- TEAE frequency: positive urine leukocyte esterase [4, 5]: 16.7%
- treatment-related TEAE: abnormal urine analysis [4, 6]: 16.7%
- treatment-related TEAE: decreased blood calcium [4, 6]: 13.3%
- treatment-related TEAE: decreased hemoglobin [4, 6]: 16.7%
- treatment-related TEAE: headache [4, 6]: 20.0%
- dose proportionality of systemic exposure ([4]; single oral dose 100-1200 mg): did not appear to be dose-proportional
- fraction absorbed ([4]; single oral dose 100-1200 mg, healthy fasted subjects): low but detectable fraction
- metabolism ([4]; single oral dose, mass spectral analysis): metabolized in the body via glucuronidation
